Results from US5412095A, “Terazosin monohydrochloride and processes and intermediate for its production” (Abbott Laboratories, priority 1994, dated 1995).
Counter-ions that a name gives are not always drawn. Like-named read-outs stand apart in the source and are kept apart here.

What was measured:
[1] = Solubility/dissolution of forms of terazosin monohydrochloride in distilled water (shaken, 0.45 µm filtered, UV at 254 nm); type: physicochemical; conditions: for Solubility of Various Forms of Terazosin Monohydrochloride / solubility at 0.5 min / solubility at 1 min / solubility at 2 min / solubility at 4 min: distilled water, 2 g in 5 mL; for dissolution in water (in words): qualitative; for solubility at 0.5 min / solubility at 1 min / solubility at 2 min / solubility at 4 min: read-out: Solubility of Various Forms of Terazosin Monohydrochloride
Experimental: The data in Table 1 were collected, for each data point, by weighing 2 g samples of terazosin monohydrochloride dihydrate and each of Forms I, II and II of the non-solvated monohydrochloride separately into 50 mL centrifuge tubes. Five mL of distilled water were added to each tube and the tubes shaken for the times indicated and then rapidly filtered through a 0.45 μu nylon membrane filter. The resulting flitrates were serially diluted with water 2 to […], 5 to 50, 5 to 50 and 5 to 100 mL and the ultraviolet absorption maximum at 254 nm measured. The concentrations of the dissolved terazosin were then calculated from the absorption data using dam from a series of standard concentrations.

[2] = Acidic cleavage of terazosin in aqueous acid; type: physicochemical; conditions: aqueous medium, cleaves into 4-amino-6,7-dimethoxy-2-piperazinylquinazoline and 2-furoic acid
Experimental: In the particular case of terazosin, when the parent compound or its hydrochloride salt is in contact for extended periods with aqueous acid, it undergoes an undesirable side reaction which cleaves the compound into its constituent parts: [drawing 2]
Moreover, if the hydrochloride salt is prepared by lyophilization of the reaction mixture of terazosin free base and hydrochloric acid, unless care is taken to remove any excess acid present in the isolated salt, the solid may also contain small amounts of acid which causes degradative cleavage over time.

[3] = free base form; cited from earlier work

## COc1cc2nc(N3CCN(C(=O)C4CCCO4)CC3)nc(N)c2cc1OC (stereo not shown) [Form III, 1-(4-amino-6,7-dimethoxy-2-quinazolinyl)-4-(tetrahydro-2-furoyl)piperazinemonohydrochloride]
[1]; 0.5 minutes
  Solubility of Various Forms of Terazosin Monohydrochloride: 235 mg/mL
[1]; 1 minute, 1 min
  Solubility of Various Forms of Terazosin Monohydrochloride: 237 mg/mL
[1]; 2 minutes
  Solubility of Various Forms of Terazosin Monohydrochloride: 269 mg/mL
[1]; 4 minutes
  Solubility of Various Forms of Terazosin Monohydrochloride: 261 mg/mL
[1]; water, multiple of dihydrate solubility
  solubility rapidly achieved relative to the dihydrate limit (about 30 mg/mL): about ten times
[1]; water
  dissolution in water (in words): rapidly dissolves in water
[1]; water, listed as terazosin monohydrochloride Form III
  dissolution in water (in words): dissolves in water much more rapidly than the dihydrate form

## COc1cc2nc(N3CCN(C(=O)C4CCCO4)CC3)nc(N)c2cc1OC (stereo not shown) [Form I, 1-(4-amino-6,7-dimethoxy-2-quinazolinyl)-4-(tetrahydro-2-furoyl)piperazinemonohydrochloride]
[1]; water, 0.5 minutes
  solubility at 0.5 min: 273 mg/mL
[1]; water, 1 minute
  solubility at 1 min: 283 mg/mL
[1]; water, 2 minutes
  solubility at 2 min: 289 mg/mL
[1]; water, 4 minutes
  solubility at 4 min: 276 mg/mL

## COc1cc2nc(N3CCN(C(=O)C4CCCO4)CC3)nc(N)c2cc1OC.Cl.O.O (stereo not shown) [Dihydrate, 1-(4-Amino-6,7-dimethoxy-2-quinazolinyl)-4-(tetrahydro-2-furoyl)piperazine monohydrochloride dihydrate]
[1]; 0.5 minutes
  solubility at 0.5 min: 29 mg/mL
[1]; 1 minute
  solubility at 1 min: 30 mg/mL
[1]; 2 minutes
  solubility at 2 min: 27 mg/mL
[1]; 4 minutes
  solubility at 4 min: 26 mg/mL
[1]; water, rapidly reached, read-out: limit of solubility
  solubility: ~30 mg/mL

## COc1cc2nc(N3CCN(C(=O)C4CCCO4)CC3)nc(N)c2cc1OC (stereo not shown) [terazosin, 1-(4-amino-6,7-dimethoxy-2-quinazolinyl)-4-(tetrahydro-2furoyl)piperazine]
[2]
  acidic cleavage (stability): occurs rapidly in aqueous medium
[3]
  solubility for oral administration (in words): does not possess the requisite solubility for convenient oral administration

## COc1cc2nc(N3CCN(C(=O)C4CCCO4)CC3)nc(N)c2cc1OC (stereo not shown) [Form II, 1-(4-amino-6,7-dimethoxy-2-quinazolinyl)-4-(tetrahydro-2-furoyl)piperazinemonohydrochloride]
[1]; 0.5 minutes
  Solubility of Various Forms of Terazosin Monohydrochloride: 280 mg/mL
[1]; 1 minute, 1 min
  Solubility of Various Forms of Terazosin Monohydrochloride: 253 mg/mL
[1]; 2 minutes
  Solubility of Various Forms of Terazosin Monohydrochloride: 311 mg/mL
[1]; 4 minutes
  Solubility of Various Forms of Terazosin Monohydrochloride: 323 mg/mL
